Assay results published in patent US20160137639A1, “TRIAZOLE-ISOXAZOLE COMPOUND AND MEDICAL USE THEREOF” (JAPAN TOBACCO INC., priority 2012, published 2016).
pEC50: −log10 of the molar value. Like-named read-outs stand apart in the source and are kept apart here.

Columns and labels:
human RORγ = target: T1, human RORγ (Homo sapiens, UniProt P51449); test: Luciferase reporter gene assay of inhibitory effect against RORγ transcriptional activity (GAL4-hRORγ plasmid in CHO cells); format: cell-based; conditions: for EC50: read-out: LUC EC50 (μM) hRORg; for pEC50: read-out: LUC EC50 hRORg
T1 construct: human, NM_005060.3 and from Ser253 to Lys518; expressed in transfected cells; host or cells: CHO cells (transient co-transfection with pG5-Luc reporter)
T1 sequence (P51449 253-518): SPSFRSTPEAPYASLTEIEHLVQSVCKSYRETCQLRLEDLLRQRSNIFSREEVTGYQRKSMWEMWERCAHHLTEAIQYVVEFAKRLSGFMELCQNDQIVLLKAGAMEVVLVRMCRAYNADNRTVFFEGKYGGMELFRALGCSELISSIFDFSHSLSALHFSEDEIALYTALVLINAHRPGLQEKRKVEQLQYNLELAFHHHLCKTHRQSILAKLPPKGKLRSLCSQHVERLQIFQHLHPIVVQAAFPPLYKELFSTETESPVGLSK

mouse RORγ = target: T2, mouse RORγ (Mus musculus, UniProt P51450); test: Luciferase reporter gene assay of inhibitory effect against RORγ transcriptional activity (GAL4-mRORγ plasmid in CHO cells); format: cell-based; conditions: for EC50: read-out: LUC EC50 (μM) mRORg; for pEC50: read-out: LUC EC50 mRORg
T2 construct: mouse, NM_011281.2 and from Ile251 to Lys516; expressed in transfected cells; host or cells: CHO cells (transient co-transfection with pG5-Luc reporter)
T2 sequence (P51450 251-516): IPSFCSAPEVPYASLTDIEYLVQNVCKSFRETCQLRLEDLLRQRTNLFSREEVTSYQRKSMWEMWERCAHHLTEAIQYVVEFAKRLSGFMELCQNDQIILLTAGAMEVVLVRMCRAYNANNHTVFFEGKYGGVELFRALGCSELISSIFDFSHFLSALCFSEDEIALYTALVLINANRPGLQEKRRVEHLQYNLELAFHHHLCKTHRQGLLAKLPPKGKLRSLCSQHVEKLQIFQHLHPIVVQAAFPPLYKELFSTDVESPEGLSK
Summary of the method: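 Readout is intracellular luciferase after 2-day compound exposure (8 concentrations, 0.1% DMSO) in CHO cells expressing GAL4 fused to mouse RORγ LBD residues Ile251–Lys516 plus pG5-Luc reporter. EC50 fitted from %-of-control; points showing resazurin-detected cytotoxicity dropped.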

## Cc1ccc(NC(=O)C[C@H](CCC(=O)O)c2noc(-c3cc(C(F)(F)CC(C)C)on3)c2C2CC2)c(Cl)c1 [Example E-33]
Human RORγ
  EC50: < 3 µM
Mouse RORγ
  EC50: < 3 µM

## CCC(C)(C)C[C@H]1C[C@@H](c2onc([C@@H](CCC(=O)O)CC(=O)Nc3ccc(C)nc3C)c2C2CC2)C1 [Example F-692]
Human RORγ
  pEC50: > 5.52
Mouse RORγ
  pEC50: > 5.52

## Cc1c(Cl)cccc1NC(=O)CC(CCO)c1nnc(CCC(C)C)n1C1CC1 (racemic) [Example F-175]
Human RORγ
  EC50: < 3 µM
Mouse RORγ
  EC50: < 3 µM

## Cc1ccc(NC(=O)C[C@@H](c2nnc([C@H]3C[C@@H](CC(C)C)C3)n2C2CC2)N(C)C(C)C)c(C)c1 [Example F-537]
Human RORγ
  pEC50: > 5.52
Mouse RORγ
  pEC50: > 5.52

## CC(=O)N1C[C@H](C(=O)Nc2ccc(C)cc2C)[C@@H](c2nnc(C3CC4(CCC(F)(F)CC4)C3)n2C2CC2)C1 [Example F-620]
Human RORγ
  pEC50: > 5.52
Mouse RORγ
  pEC50: > 5.52

## CC(=O)N1C[C@H](C(=O)Nc2ccc(C)cc2C)[C@@H](c2nnc(C3CC(C(C)C)C3)n2C2CC2)C1 (stereo partly drawn) [Example F-298]
Human RORγ
  EC50: < 3 µM
Mouse RORγ
  EC50: < 3 µM

## CCn1c(CCCC(C)(C)C)nnc1[C@H]1CN(C(C)=O)C[C@@H]1C(=O)Nc1ccc(C)cc1C (racemic) [Example F-351]
Human RORγ
  EC50: < 3 µM
Mouse RORγ
  EC50: < 3 µM

## CC(=O)N1C[C@H](C(=O)Nc2ccc(C)cc2C)[C@@H](c2nnc(-c3cc(CC(C)C)no3)n2C2CC2)C1 [Example F-506]
Human RORγ
  pEC50: > 5.52
Mouse RORγ
  pEC50: > 5.52

## CC(C)CCc1nnc(CCC(=O)Nc2ccccc2Cl)n1C1CC1 [Example F-93]
Human RORγ
  EC50: > 3 µM
Mouse RORγ
  EC50: > 3 µM

## Cc1cc(C(F)(F)F)ccc1NC(=O)C[C@H](CCO)c1nnc([C@H]2C[C@@H](CC(C)C)C2)n1C1CC1 [Example F-546]
Human RORγ
  pEC50: > 5.52
Mouse RORγ
  pEC50: > 5.52

## Cc1ccc(NC(=O)CCc2noc([C@H]3C[C@@H](CC(C)C)C3)c2C2CC2)c(C)c1 [Example F-665]
Human RORγ
  pEC50: > 5.52
Mouse RORγ
  pEC50: > 5.52

## Cc1ccc(NC(=O)CC(CCCO)c2nnc(CCCC(C)(C)C)n2CC(F)(F)F)c(C)c1 (racemic) [Example F-401]
Human RORγ
  EC50: < 3 µM
Mouse RORγ
  EC50: < 3 µM

## Cc1cc(F)ccc1NC(=O)[C@H]1CC(F)(F)C[C@@H]1c1nnc(-c2cc(CC(C)C)on2)n1C1CC1 [Example F-592]
Human RORγ
  pEC50: > 5.52
Mouse RORγ
  pEC50: > 5.52

## CC(C)CCc1nnc(CCC(=O)Nc2cccc3ccccc23)n1C1CC1 [Example F-81]
Human RORγ
  EC50: < 3 µM
Mouse RORγ
  EC50: < 3 µM

## Cc1ccc(NC(=O)[C@H]2CC(F)(F)C[C@@H]2c2nnc([C@H]3C[C@@H](CC(C)C)C3)n2C2CC2)c(C)c1 [Example F-571]
Human RORγ
  pEC50: > 5.52
Mouse RORγ
  pEC50: > 5.52

## Cc1ccc(NC(=O)C[C@H](CC#N)c2nnc([C@H]3C[C@@H](CC(C)C)C3)n2C2CC2)c(C)c1 [Example F-465]
Human RORγ
  EC50: < 3 µM
Mouse RORγ
  EC50: < 3 µM

## Cc1c(Cl)cccc1NC(=O)CCc1nnc(CCC2CCCN(C(=O)OC(C)(C)C)C2)n1C1CC1 (racemic) [Example F-186]
Human RORγ
  EC50: < 3 µM
Mouse RORγ
  EC50: < 3 µM

## CCn1c(CCC(=O)NCc2cccc3ccccc23)nnc1C1Cc2ccccc2C1 [Example F-18]
Human RORγ
  EC50: < 3 µM
Mouse RORγ
  EC50: < 3 µM

## Cc1ccc(NC(=O)C[C@H](CCC(=O)O)c2nnn([C@H]3C[C@@H](CC(C)(C)C(C)C)C3)c2C2CC2)c(Cl)c1 [Example F-713]
Human RORγ
  pEC50: > 5.52
Mouse RORγ
  pEC50: > 5.52

## CC(=O)N1CC[C@H](C(=O)Nc2ccc(C)cc2C)[C@H]1c1nnc(CCC2CCCCC2)n1C1CC1 [Example F-227]
Human RORγ
  EC50: < 3 µM
Mouse RORγ
  EC50: < 3 µM

## Cc1ccc(NC(=O)[C@H]2CN(S(=O)(=O)C(F)(F)F)C[C@@H]2c2nnc(-c3cc(CC(C)C)on3)n2C2CC2)c(C)c1 [Example F-547]
Human RORγ
  pEC50: > 5.52
Mouse RORγ
  pEC50: > 5.52

## CC(=O)N1C[C@H](C(=O)Nc2ccc(Cl)cc2C)[C@@H](c2nnc(C3CC4(CCC(F)(F)CC4)C3)n2C2CC2)C1 [Example F-610]
Human RORγ
  pEC50: > 5.52
Mouse RORγ
  pEC50: > 5.52

## CCCCc1nnc(CCC(=O)Nc2cccc(Cl)c2C)n1C1CC1 [Example F-105]
Human RORγ
  EC50: > 3 µM
Mouse RORγ
  EC50: > 3 µM

## CC(=O)N1C[C@@H](C(=O)Nc2ccc(C)cc2C)[C@H](c2nnc([C@H]3C[C@@H](OC(C)C)C3)n2C2CC2)C1 [Example F-337]
Human RORγ
  EC50: > 3 µM
Mouse RORγ
  EC50: > 3 µM

## Cc1ccc(NC(=O)CC(CCCN(C)C)c2nnc(CCCC(C)C)n2C2CC2)c(C)c1 (racemic) [Example F-288]
Human RORγ
  EC50: > 3 µM
Mouse RORγ
  EC50: > 3 µM

## CC(C)CCc1nnc(CCC(=O)NCc2cccc3[nH]cnc23)n1C1CC1 [Example F-115]
Human RORγ
  EC50: > 3 µM
Mouse RORγ
  EC50: > 3 µM

## Cc1ccc(NC(=O)[C@H]2CN(CC(=O)N(C)C)C[C@@H]2c2nnc([C@H]3C[C@@H](CC(C)C)C3)n2C2CC2)c(C)c1 [Example F-656]
Human RORγ
  pEC50: > 5.52
Mouse RORγ
  pEC50: > 5.52

## CC(=O)N1C[C@H](C(=O)Nc2ccc(C)cc2C)[C@@H](c2nnc(-c3cc(CC(C)(C)C)on3)n2C2CC2)C1 [Example F-631]
Human RORγ
  pEC50: > 5.52
Mouse RORγ
  pEC50: > 5.52

## CC(C)(C)C[C@H]1C[C@@H](c2onc([C@@H](CCC(=O)O)CC(=O)NS(=O)(=O)c3ccccc3)c2C2CC2)C1 [Example F-723]
Human RORγ
  pEC50: < 5.52
Mouse RORγ
  pEC50: < 5.52

## CC(=O)N1C[C@@H](C(=O)Nc2ccc(C)cc2C)[C@H](c2nnc(CCC3CCCCC3)n2C2CC2)C1 [Example F-375]
Human RORγ
  EC50: > 3 µM
Mouse RORγ
  EC50: > 3 µM

## Cc1ccc(NC(=O)CCc2nnc(CCC3CCCCC3)n2C2CC2(F)F)c(C)c1 (racemic) [Example F-211]
Human RORγ
  EC50: < 3 µM
Mouse RORγ
  EC50: < 3 µM

## Cc1ccc(NC(=O)[C@H]2CNC[C@@H]2c2nnc(CCCC(C)(C)C)n2C2CC2)c(C)c1 (racemic) [Example F-449]
Human RORγ
  EC50: > 3 µM
Mouse RORγ
  EC50: > 3 µM

## Cc1ccc(NC(=O)CC(Cc2cc(O)no2)c2nnc([C@H]3C[C@@H](CC(C)C)C3)n2C2CC2)c(C)c1 (mixture of isomers) [Example F-450]
Human RORγ
  EC50: < 3 µM
Mouse RORγ
  EC50: < 3 µM

## O=C(O)CC[C@@H](CC(=O)Nc1ccc(F)cc1Cl)c1noc(-c2cc(C3CCCC3)on2)c1C1CC1 [Example E-60]
Human RORγ
  EC50: < 3 µM
Mouse RORγ
  EC50: < 3 µM

## CC(=O)N1C[C@H](C(=O)Nc2ccc(C)cc2C)[C@@H](c2nnc(C3CC3CC(C)C)n2C2CC2)C1 (mixture of isomers) [Example F-340]
Human RORγ
  EC50: > 3 µM
Mouse RORγ
  EC50: < 3 µM

## Cc1ccc(NC(=O)C[C@H](CCC(=O)O)c2noc(-c3nc(C)c(CC(C)C)s3)c2C2CC2)c(Cl)c1 [Example E-27]
Human RORγ
  EC50: < 3 µM
Mouse RORγ
  EC50: < 3 µM

## CCCn1c(CCC(=O)Nc2cccc3ccccc23)nnc1C1Cc2ccccc2C1 [Example F-5]
Human RORγ
  EC50: > 3 µM
Mouse RORγ
  EC50: > 3 µM

## Cc1ccc(NC(=O)C[C@H](CCC(=O)O)c2noc(-c3noc(CC(C)C)c3C)c2C2CC2)c(Cl)c1 [Example E-29]
Human RORγ
  EC50: < 3 µM
Mouse RORγ
  EC50: < 3 µM

## Cc1ccc(NC(=O)[C@H]2C[C@@H](O)C[C@@H]2c2nnc([C@H]3C[C@@H](CC(C)C)C3)n2C2CC2)c(C)c1 (racemic) [Example F-431]
Human RORγ
  EC50: < 3 µM
Mouse RORγ
  EC50: < 3 µM

## COCC(C)(C)C[C@H]1C[C@@H](c2onc([C@@H](CCC(=O)O)CC(=O)Nc3ccc(CO)cc3Cl)c2C2CC2)C1 [Example F-724]
Human RORγ
  pEC50: > 5.52
Mouse RORγ
  pEC50: > 5.52

## CC(C)(C)C(F)(F)c1cc(-c2onc([C@H](CCC(=O)O)CC(=O)Nc3ccc(Cl)cc3F)c2C2CC2)no1 [Example E-80]
Human RORγ
  pEC50: > 5.52
Mouse RORγ
  pEC50: > 5.52

## Cc1c(Cl)cccc1NC(=O)CCc1nnc(CCC2CCCNC2)n1C1CC1 (racemic) [Example F-189]
Human RORγ
  EC50: > 3 µM
Mouse RORγ
  EC50: > 3 µM

## Cc1ccc(NC(=O)CCc2nnc(C3CC(COC(C)C)C3)n2C2CC2)c(C)c1 (single isomer, unassigned) [Example F-477]
Human RORγ
  EC50: < 3 µM
Mouse RORγ
  EC50: < 3 µM

## Cc1ccc(NC(=O)C[C@H](CCC(=O)O)c2noc(-c3cc(C(F)(F)C(C)(C)C)on3)c2C2CC2)c(Cl)c1 [Example E-40]
Human RORγ
  EC50: < 3 µM
Mouse RORγ
  EC50: < 3 µM

## Cc1cc(Cl)ccc1NC(=O)C[C@H](OCC(F)(F)F)c1nnc(-c2cc(CC(C)C)on2)n1C1CC1 [Example F-630]
Human RORγ
  pEC50: > 5.52
Mouse RORγ
  pEC50: > 5.52

## CC(C)(C)c1cc(-c2onc([C@@H](CCC(=O)O)CC(=O)Nc3ccc(Cl)cc3F)c2C2CC2)no1 [Example E-69]
Human RORγ
  EC50: < 3 µM
Mouse RORγ
  EC50: < 3 µM

## Cc1c(Cl)cccc1NC(=O)CCc1nnc(CCN2CCC(F)(F)CC2)n1C1CC1 [Example F-261]
Human RORγ
  EC50: > 3 µM
Mouse RORγ
  EC50: < 3 µM

## CC(C)(C)C(F)(F)c1cc(-c2onc([C@@H](CCC(=O)O)CC(=O)Nc3ccc(Cl)cc3F)c2C2CC2)no1 [Example E-49, Sodium (S)-5-(4-chloro-2-fluoro-phenylcarbamoyl)-4-[4′-cyclopropyl-5-(1,1-difluoro-2,2-dimethylpropyl)-[3,5′]biisoxazolyl-3′-yl]-pentanoate]
Human RORγ
  EC50: < 3 µM
Mouse RORγ
  EC50: < 3 µM
